Data set [1] is described as follows: Neurotoxicity in ip dosed Swiss albino mouse assessed as impair in motor coordination from 0.5 to 4 hrs post administration by rotarod test. To be noted: in vivo. Type of data set: toxicity, organism-based.
The species named for data set [2] is Mus musculus. Nature of the data set: Protection index, ratio of TD50 for Swiss albino mouse by rotarod test to ED50 for Swiss albino mouse by maximal electroshock test. Format: functional. A general note: The rotarod test checks motor coordination on a turning rod.
Data set [3] has as its system Mus musculus. As to the kind of experiment: Anticonvulsant activity in Swiss albino mouse assessed as protection against maximal electroshock-induced seizures measuring inhibition of extension phase at 25 mg/kg, ip after 2 hrs. Format: functional. To be noted: route intraperitoneal.
Data set [4] has as its system Mus musculus. Nature of the data set: Neurotoxicity in Swiss albino mouse assessed as impair in motor coordination at 300 mg/kg, ip after 0.5 hrs by rotarod test. Format: toxicity, organism-based. To be noted: in vivo. The arrangement: dose 300 mg/kg, route intraperitoneal.
Data set [5] relates to Mus musculus. Nature of the data set: Neurotoxicity in Swiss albino mouse assessed as impair in motor coordination at 300 mg/kg, ip after 4 hrs by rotarod test. Format: toxicity, organism-based. The arrangement: dose 300 mg/kg, route intraperitoneal. Conditions: in vivo.
Data set [6] deals with Mus musculus. Nature of the data set: Anticonvulsant activity in ip dosed Swiss albino mouse assessed as protection against maximal electroshock-induced seizures after 2 hrs. Format: functional. (Protection in the maximal electroshock model is a classic sign of anticonvulsant action.)
In data set [7] the test system is Mus musculus. As to the kind of experiment: Neurotoxicity in Swiss albino mouse assessed as impair in motor coordination at 100 mg/kg, ip after 0.5 hrs by rotarod test. Conditions: in vivo. Type of data set: toxicity, organism-based. Also on record: dose 100 mg/kg, route intraperitoneal.

The values that follow come from ChEMBL document CHEMBL1944625, “Design and synthesis of 3,5-diarylpiperidin-2,6-diones as anticonvulsant agents” (Bioorg Med Chem Lett, 2012).

Molecules are shown by their SMILES.

Usually TD50 stands for the 50% point of the dose-response relation for the toxic effect studied. The term inhibition in vivo denotes the share of the control response that was lost under treatment. What is called ED50 is the midpoint of the dose-response relation. Consider `O=C1C(c2ccccc2Cl)CC(c2ccccc2Cl)C(=O)N1Cc1ccccc1` (configuration not stated), for which, in data set [1], the TD50 was found to be 106 mg/kg. In the data set listed under Mus musculus [2], the “Ratio TD50/ED50” value amounted to 2.7. The inhibition in vivo at 25 mg/kg with Mus musculus [3] was 58.2%. The Activity entry in the data set on Mus musculus [4] and in the data set on Mus musculus [5] was “Non-toxic” each time. Also, in the data set with Mus musculus [6], the ED50 came out at 38.3 mg/kg.

For `O=C1C(c2ccccc2)CC(c2ccccc2)C(=O)N1c1ccccc1` (configuration not stated), in data set [1], the TD50 came out at 165 mg/kg. Further, the “Ratio TD50/ED50” value in the data set listed under Mus musculus [2] worked out at 3.7. Also, the inhibition in vivo at 25 mg/kg in the data set with Mus musculus [3] amounted to 38.3%. In addition, the Activity entry with Mus musculus [4] is reported as “Toxic”; in the data set with Mus musculus [5], “Non-toxic”. The ED50 in the data set with Mus musculus [6] came out at 43.7 mg/kg.

In the case of `NN1C(=O)C(c2ccccc2Cl)CC(c2ccccc2Cl)C1=O` (configuration not stated), the TD50 in data set [1] was found to be 117 mg/kg. Moreover, the “Ratio TD50/ED50” value in the data set listed under Mus musculus [2] amounted to 10.6. In the data set on Mus musculus [3], the inhibition in vivo at 25 mg/kg was 73.3%. In addition, the Activity entry with Mus musculus [4] and in the data set on Mus musculus [5] was “Toxic” throughout. Also, in the data set on Mus musculus [6], the ED50 is 11.2 mg/kg.

Consider `O=C1C(c2ccccc2)CC(c2ccccc2)C(=O)N1Cc1ccccc1` (configuration not stated), for which the TD50 in data set [1] turned out to be 218 mg/kg. In addition, the “Ratio TD50/ED50” value in the data set listed under Mus musculus [2] turned out to be 15.6. For the same molecule, in the data set with Mus musculus [3], the inhibition in vivo at 25 mg/kg is 64.5%. The Activity result with Mus musculus [4] and in the data set with Mus musculus [5] was “Non-toxic” throughout. For the same molecule, in the data set on Mus musculus [6], the ED50 came to 14 mg/kg.

As for `O=C1C(c2ccccc2Cl)CC(c2ccccc2Cl)C(=O)N1c1ccccc1` (configuration not stated), the TD50 in data set [1] amounted to 198 mg/kg. Further, in the data set filed under Mus musculus [2], the “Ratio TD50/ED50” value was found to be 3.2. Besides, in the data set on Mus musculus [3], the inhibition in vivo at 25 mg/kg came to 40.6%. Also, the Activity result in the data set on Mus musculus [4] and with Mus musculus [5] was “Non-toxic” each time. In addition, the ED50 in the data set on Mus musculus [6] worked out at 61.4 mg/kg.

`O=C1N=C(O)NC1(c1ccccc1)c1ccccc1` [PHENYTOIN SODIUM]: the inhibition in vivo at 25 mg/kg in the data set with Mus musculus [3] is 80.7%.

In the case of `CN1C(=O)C(c2ccccc2Cl)CC(c2ccccc2Cl)C1=O` (configuration not stated), the TD50 in data set [1] is 220 mg/kg. In the data set filed under Mus musculus [2], the “Ratio TD50/ED50” value stood at 9.2. Moreover, the inhibition in vivo at 25 mg/kg in the data set with Mus musculus [3] came out at 61.7%. Further, the Activity result with Mus musculus [7] and in the data set on Mus musculus [5] was “Toxic” in each case. The ED50 with Mus musculus [6] came to 23.7 mg/kg.

Consider `NC(=O)N1c2ccccc2C=Cc2ccccc21` [CARBAMAZEPINE], for which the “Ratio TD50/ED50” value in the data set listed under Mus musculus [2] was 6.4. In addition, in the data set with Mus musculus [6], the ED50 amounted to 11.8 mg/kg.

With `Cc1ccccc1N1C(=O)C(c2ccccc2)CC(c2ccccc2)C1=O` (configuration not stated), in data set [1], the TD50 came out at 104 mg/kg. Besides, in the data set listed under Mus musculus [2], the “Ratio TD50/ED50” value was 4.9. The inhibition in vivo at 25 mg/kg with Mus musculus [3] stood at 66.1%. Also, the Activity result in the data set on Mus musculus [4] was “Toxic”; in the data set on Mus musculus [5] it was “Non-toxic”. The ED50 in the data set on Mus musculus [6] stood at 21.5 mg/kg.

For the molecule `NN1C(=O)C(c2ccccc2)CC(c2ccccc2)C1=O` (configuration not stated), the TD50 in data set [1] came out at 123 mg/kg. Moreover, the “Ratio TD50/ED50” value in the data set filed under Mus musculus [2] is reported as 12.3. Moreover, the inhibition in vivo at 25 mg/kg in the data set on Mus musculus [3] turned out to be 76%. For the same molecule, the Activity entry in the data set on Mus musculus [4] and in the data set on Mus musculus [5] was “Non-toxic” throughout. For the same molecule, the ED50 in the data set with Mus musculus [6] came to 10 mg/kg.

Regarding `O=C1C(c2ccccc2)CC(c2ccccc2)C(=O)N1c1cccc(Cl)c1` (configuration not stated), the inhibition in vivo at 25 mg/kg in the data set with Mus musculus [3] came to 32.2%. The values for the Activity entry in the data set on Mus musculus [4] and in the data set with Mus musculus [5] were “Toxic” and “Non-toxic”, respectively. Also, the ED50 in the data set with Mus musculus [6] was more than 100 mg/kg.

Turning to `O=C1NC(=O)C(c2ccccc2Cl)CC1c1ccccc1Cl` (configuration not stated), the TD50 in data set [1] came out at 175 mg/kg. Also, in the data set listed under Mus musculus [2], the “Ratio TD50/ED50” value stood at 7. Moreover, the inhibition in vivo at 25 mg/kg in the data set on Mus musculus [3] stood at 58.3%. Besides, the Activity entry in the data set on Mus musculus [4] and in the data set with Mus musculus [5] was “Non-toxic” each time. Further, the 50% effective dose (ED50) with Mus musculus [6] amounted to 25.5 mg/kg.

`Cc1ccc(N2C(=O)C(c3ccccc3Cl)CC(c3ccccc3Cl)C2=O)cc1` (configuration not stated): the TD50 in data set [1] amounted to 86.5 mg/kg. Besides, the “Ratio TD50/ED50” value in the data set listed under Mus musculus [2] came to 2.1. The inhibition in vivo at 25 mg/kg with Mus musculus [3] was found to be 58.2%. Moreover, the Activity entry in the data set with Mus musculus [4] is on record as “Toxic”; with Mus musculus [5], “Non-toxic”. Moreover, in the data set with Mus musculus [6], the ED50 came to 41.2 mg/kg.

Consider `Cc1ccccc1N1C(=O)C(c2ccccc2Cl)CC(c2ccccc2Cl)C1=O` (configuration not stated), for which the TD50 in data set [1] amounted to 227 mg/kg. Moreover, in the data set listed under Mus musculus [2], the “Ratio TD50/ED50” value came to 8.3. For the same molecule, in the data set with Mus musculus [3], the inhibition in vivo at 25 mg/kg came out at 60.6%. In addition, the Activity result in the data set with Mus musculus [4] and with Mus musculus [5] was “Non-toxic” throughout. For the same molecule, the ED50 with Mus musculus [6] turned out to be 27.4 mg/kg.

Consider `O=C1NC(=O)C(c2ccccc2)CC1c1ccccc1` (configuration not stated), for which the TD50 in data set [1] is 193 mg/kg. Also, the “Ratio TD50/ED50” value in the data set listed under Mus musculus [2] turned out to be 17.5. Also, the inhibition in vivo at 25 mg/kg in the data set on Mus musculus [3] is 70.2%. Moreover, the Activity result in the data set with Mus musculus [4] and in the data set on Mus musculus [5] was “Non-toxic” each time. Also, the ED50 in the data set with Mus musculus [6] stood at 11 mg/kg.

In the case of `Cc1ccc(N2C(=O)C(c3ccccc3)CC(c3ccccc3)C2=O)cc1` (configuration not stated), the TD50 in data set [1] was 190 mg/kg. Further, the “Ratio TD50/ED50” value in the data set filed under Mus musculus [2] was 2.3. Besides, the inhibition in vivo at 25 mg/kg with Mus musculus [3] was determined as 43.3%. Also, the Activity entry in the data set with Mus musculus [7] and in the data set with Mus musculus [5] was “Toxic” each time. For the same molecule, in the data set with Mus musculus [6], the ED50 was 82 mg/kg.

For the molecule `O=C1C(c2ccccc2Cl)CC(c2ccccc2Cl)C(=O)N1c1cccc(Cl)c1` (configuration not stated), the TD50 in data set [1] was 108 mg/kg. Moreover, in the data set listed under Mus musculus [2], the “Ratio TD50/ED50” value is reported as 1.8. The inhibition in vivo at 25 mg/kg with Mus musculus [3] amounted to 43.7%. Moreover, the Activity entry in the data set on Mus musculus [4] and with Mus musculus [5] was “Non-toxic” throughout. Also, the ED50 with Mus musculus [6] was 60.2 mg/kg.

Regarding `CN1C(=O)C(c2ccccc2)CC(c2ccccc2)C1=O` (configuration not stated), the TD50 in data set [1] was determined as 323 mg/kg. Further, in the data set filed under Mus musculus [2], the “Ratio TD50/ED50” value is reported as 21.8. Also, the inhibition in vivo at 25 mg/kg in the data set with Mus musculus [3] came out at 69.1%. In addition, the Activity entry with Mus musculus [7] and in the data set with Mus musculus [5] was “Toxic” throughout. Besides, the ED50 in the data set on Mus musculus [6] was found to be 14.8 mg/kg.
